From BindingDB's records for doi:10.1021/jm500588w (Sanofi R & D, 2014)
pIC50: −log10 of the molar value.

assay: Antagonist activity at P2Y12 receptor in human platelet rich plasma assessed as inhibition of ADP-induced aggregation

Compound	pIC50
CCCC(=O)c1cnn(-c2ccc(NC(=O)c3cn(CC(=O)OC)c4ccc(C)cc34)cc2)c1C	5.39
CCCC(=O)c1cnn(-c2ccc(NC(=O)Nc3cc(C)ccc3OCCCC(=O)O)cc2)c1C	< 4.52
CCCC(=O)c1cnn(-c2ccc(NC(=O)c3cn(CC(=O)N4CCN5CCN(C)C(=O)C5C4)c4ccc(Cl)cc34)cc2)c1C (configuration not stated)	6.52
CCCC(=O)c1cnn(-c2ccc(N(C)C(=O)c3cn(CC(=O)O)c4ccc(C)cc34)cc2)c1C	< 4.52
CCCC(=O)c1cnn(-c2ccc(NC(=O)c3cn(CCCC(=O)O)c4ccc(C)cc34)cc2)c1C	4.70
CCCC(=O)c1cnn(-c2ccc(NC(=O)c3cn(CC(=O)N4CCN(C)CC4)c4cc(C)c(Cl)cc34)cc2)c1C	6.30
CCOC(=O)c1c(C)nn(-c2ccc(C(=O)NCc3ccccc3OC)cc2)c1C	4.77
CCCC(=O)c1cnn(-c2ccc(NC(=O)c3cn(CC(=O)O)c4cc(C)c(C)cc34)cc2)c1C	6.40
CCCC(=O)c1cnn(-c2ccc(NC(=O)n3cc(CCCC(=O)O)c4ccc(C)cc43)cc2)c1C	< 4.52
CCCC(=O)c1cnn(-c2ccc(NC(=O)c3cn(CC(=O)N4CCN(CCOC)CC4)c4ccc(Cl)cc34)cc2)c1C	6.52
CCCC(=O)c1cnn(-c2ccc(NC(=O)c3cn(CCC(=O)O)c4ccc(C)cc34)cc2)c1C	5.40
CCCC(=O)c1cnn(-c2ccc(NC(=O)c3cn(CC(=O)N4CCN(C)CC4)c4cc(C)c(Br)cc34)cc2)c1C	5.96
CCCC(=O)c1cnn(-c2ccc(NC(=O)c3cn(CC(=O)N4CCN(C)CC4)c4ccc(OC)cc34)cc2)c1C	6.40
CCCC(=O)c1cnn(-c2ccc(NC(=O)c3c(C)n(CC(=O)O)c4ccc(C)cc34)cc2)c1C	4.82
CCCC(=O)c1cnn(-c2ccc(NC(=O)c3cn(CC(=O)O)c4ccc(C)c(C)c34)cc2)c1C	< 4.52
CCCC(=O)c1cnn(-c2ccc(NC(=O)c3cn(CC(=O)N4CCN(CCO)CC4)c4ccc(Cl)cc34)cc2)c1C	6.52

Further compounds by rising pIC50, results first:

pIC50	Compound
4.89	CCOC(=O)c1c(C)nn(-c2ccc(NC(=O)Nc3ccccc3OCCCC(=O)O)cc2)c1C
5.35	CCOC(=O)c1c(C)nn(-c2ccc(NC(=O)Nc3ccc(Cl)cc3)cc2)c1C
5.74	CCCC(=O)c1cnn(-c2ccc(NC(=O)c3cn(CC(=O)O)c4ccc(C)cc34)cc2)c1C
6.10	CCCC(=O)c1cnn(-c2ccc(NC(=O)c3cn(CC(=O)N(C)C)c4cc(C)c(C)cc34)cc2)c1C
6.15	CCCC(=O)c1cnn(-c2ccc(NC(=O)c3cn(CC(=O)N4CCN(C)CC4)c4ccc(C(F)(F)F)cc34)cc2)c1C
6.30	CCCC(=O)c1cnn(-c2ccc(NC(=O)c3cn(CC(=O)N4CCN(C)CC4)c4cc(F)c(Cl)cc34)cc2)c1C
6.30	CCCC(=O)c1cnn(-c2ccc(NC(=O)c3cn(CC(=O)N4CCN(C)CC4)c4cc(C)c(C)cc34)cc2)c1C
6.30	CCCC(=O)c1cnn(-c2ccc(NC(=O)c3cn(CC(=O)N4CCN(C)CC4)c4ccc(C)cc34)cc2)c1C
6.30	CCCC(=O)c1cnn(-c2ccc(NC(=O)c3cn(CC(=O)N4CCN(C)CC4)c4ccc(Cl)cc34)cc2)c1C
6.40	CCCC(=O)c1cnn(-c2ccc(NC(=O)c3cn(CC(=O)N4CCN(CC(=O)N(C)C)CC4)c4ccc(Cl)cc34)cc2)c1C
6.52	CCCC(=O)c1cnn(-c2ccc(NC(=O)c3cn(CC(=O)N4CCN(Cc5cc(C)on5)CC4)c4ccc(Cl)cc34)cc2)c1C
